Results taken from patent publication US10172549B2, “Methods of facilitating positioning of electrodes” (Cardionomic, Inc., priority 2016, dated 2019).

Test system: right ventricle contractility and left ventricle contractility
Assay: Heartbeat-by-heartbeat correlation of right and left ventricle contractility after a change, max(dP/dt) from pressure sensors as surrogate for contractility
Assay type: in vivo, ovine
Details: after injection
Text: The correlation was a heartbeat-by-heartbeat analysis. Pressure measurements, taken by a Millar catheter comprising a MEMS pressure sensor, in units of max(dP/dt) was used as a surrogate for contractility.
The first change, a dobutamine injection, provided a very high contractility increase greater than 500%. The average correlation between right ventricle contractility and left ventricle contractility was very good at 0.91, where 1.00 is a perfect correlation. Accordingly, if a subject is given a dobutamine injection, measuring changes to right ventricle contractility can provide accurate information about changes to left ventricle contractility. The first change was repeated three times.
The second change, calcium injection at 5 mL, provided a contractility increase of about 20%. […] The average correlation between right ventricle contractility and left ventricle contractility using a Millar (MEMS) sensor on a catheter was very good at 0.91. The average correlation between right ventricle contractility and left ventricle contractility using a fluid-filled lumen of a Swan-Ganz catheter in communication with an external pressure sensor was also very good at 0.87. Accordingly, under certain circumstances such as measurement of an animal (normal, non-HF ovine model) model, if a subject is given a calcium injection, measuring changes to right ventricle contractility with a MEMS sensor or a fluid filled lumen can provide accurate information about changes to left ventricle contractility.
The fourth change, neurostimulation as described herein, provided a contractility increase of about 28%. The correlation between right ventricle contractility and left ventricle contractility was very good at 0.90. Accordingly, if a subject is given neurostimulation, measuring changes to right ventricle contractility can provide accurate information about changes to left ventricle contractility. […] Thereafter, the left ventricle contractility tapered off logarithmically or exponentially, but the right ventricle contractility decreased very slowly. These differences help to show why the correlation between left ventricle contractility and right ventricle contractility are poorly correlated for calcium injections. The fourth change was not repeated.

## CC(CCc1ccc(O)cc1)NCCc1ccc(O)c(O)c1 (stereo not shown) [Dobutamine Injection, dobutamine]
  Contractility % Increase: >500%
Listed as dobutamine injection
  Contractility % Increase: greater than 500%

## calcium [Calcium Injection]
  Contractility % Increase: ~20%
Listed as calcium injection
  Contractility % Increase: about 20%
